Values quoted from earlier work, collected in patent US20250333714A1, “ARTIFICIAL DNA REPLISOME AND METHODS OF USE THEREOF” (Regents of the University of Minnesota, priority 2021, published 2025).

Tested on: DNA
Conditions: cited from earlier work

For “E. coli PolA: E. coli DNA polymerase I, slower than Rep helicase”, the “speed of DNA unwinding or DNA synthesis” value is given as about 15 base-pairs/s.
